From patent US12545673B2, “Imidazopyridine derivative and pharmaceutical composition comprising same as active ingredient” (TSD LIFE SCIENCES CO., LTD., priority 2019, dated 2026)
Where two headings read alike, the source gives them in different places.

Experiments:
[1] = test system: acute lymphoblastic leukemia cell line Jurkat; assay: Cancer cell proliferation inhibitory activity evaluation 2 (CCK-8), Jurkat; type: cell-based; settings: Homo sapiens
[2] = biological target: LRRK2 mutant (G2019S) (Homo sapiens (Human), UniProt Q5S007, G2019S); assay: Evaluation of inhibitory activity against LRRK2 (affinity bead competition binding), G2019S mutant; settings: read-out: Residual active values (%) LRRK2(G2019S); for remaining binding at 0.1 µM: 100 nM; for remaining binding at 0.5 µM: 500 nM
Protocol: (§1) In order to identify the activity inhibitory effect on the LRRK2 wild-type and LRRK2 mutant (G2019S) kinase of the example compound according to the present disclosure, BL21-derived E. coli bacteria (E. coli) were cultured in a 24-well plate until the growth phase (log phase). After culturing, T7 phage tagged with LRRK2 wild-type or LRRK2 mutant (G2019S) was used to infect the multiplicity of infection (MOI) at 0.4. Thereafter, the E. coli bacteria were stirred at 32° C. for 90 to 150 minutes to allow dissolution. The lysate of E. coli bacteria was centrifuged (6,000×g) and filtered (0.2 μm), and the obtained tagged T7 phage […] a DNA-tagged kinase protein (LRRK2 or LRRK2 G2019S) was obtained.
(§2) After blocking the biotinylated ligand with extra biotin, it is washed with Pierce's buffer, SeaBlock (1% BSA, 0.05% Tween 20, 1 mM DTT) to remove unbound ligand and reduce non-specific binding.
(§3) The compound was prepared at a concentration of 40× in 100% DMSO and used after dilution, and all binding reactions were performed in a final volume of 0.02 ml in a 384-well plate.
(§4) The activity inhibitory effect on the LRRK2 wild-type and LRRK2 mutant (G2019S) kinases of the example compounds according to the present disclosure was measured and shown in Table 10 below.

[3] = biological target: LRRK2 wild-type (Homo sapiens (Human), UniProt Q5S007); assay: Evaluation of inhibitory activity against LRRK2 (affinity bead competition binding), wild-type; settings: read-out: Residual active values (%) LRRK2; for remaining binding at 0.1 µM: 100 nM; for remaining binding at 0.5 µM: 500 nM
Protocol: as §1, §2, §3, §4

[4] = test system: acute myeloid leukemia cell line U937; assay: Cancer cell proliferation inhibitory activity evaluation 2 (CCK-8), U937; type: cell-based; settings: Homo sapiens, read-out: Cancer cell proliferation inhibitory activity U937
[5] = test system: α-SMA; assay: Fibrosis inhibition evaluation 2, palmitic acid-induced HepG2, real-time PCR, α-SMA; settings: palmitic acid-induced HepG2 (Table 8)
[6] = test system: Fibronectin-1; assay: Fibrosis inhibition evaluation 2, palmitic acid-induced HepG2, real-time PCR, Fibronectin-1
[7] = test system: TGF-β1; assay: Fibrosis inhibition evaluation 2, palmitic acid-induced HepG2, real-time PCR, TGF-β1
[8] = biological target: MLK3 (Homo sapiens (Human), UniProt Q16584); assay: Evaluation of inhibitory activity of enzyme units, MLK3 ([γ-33P]-ATP filter assay); settings: read-out: IC50(nM) MLK3
[9] = test system: gastric cancer cell line AGS; assay: Cancer cell proliferation inhibitory activity evaluation 2 (CCK-8), AGS; type: cell-based; settings: Homo sapiens, read-out: Cancer cell proliferation inhibitory activity AGS
[10] = biological target: MLK1 (Homo sapiens (Human), UniProt P80192); assay: Evaluation of inhibitory activity of enzyme units, MLK1 ([γ-33P]-ATP filter assay); type: biochemical
[11] = biological target: MLK2 (Homo sapiens (Human), UniProt Q02779); assay: Evaluation of inhibitory activity of enzyme units, MLK2 ([γ-33P]-ATP filter assay); type: biochemical
[12] = test system: gastric cancer cell line Hs746T; assay: Cancer cell proliferation inhibitory activity evaluation 2 (CCK-8), Hs746T; type: cell-based; settings: Homo sapiens
[13] = test system: human lung cancer cell line A549; assay: Cancer cell proliferation inhibitory activity evaluation 2 (CCK-8), A549; type: cell-based
[14] = 72 h, read-out: Cancer cell proliferation inhibitory activity Jurkat
[15] = 10 μM, 72 hours, CCK-8, read-out: Cancer cell proliferation inhibitory activity Jurkat
[16] = U-937, 10 μM, 72 hours, CCK-8 (Table 3)

Chain of MLK1 (P80192 whole entry, looked up): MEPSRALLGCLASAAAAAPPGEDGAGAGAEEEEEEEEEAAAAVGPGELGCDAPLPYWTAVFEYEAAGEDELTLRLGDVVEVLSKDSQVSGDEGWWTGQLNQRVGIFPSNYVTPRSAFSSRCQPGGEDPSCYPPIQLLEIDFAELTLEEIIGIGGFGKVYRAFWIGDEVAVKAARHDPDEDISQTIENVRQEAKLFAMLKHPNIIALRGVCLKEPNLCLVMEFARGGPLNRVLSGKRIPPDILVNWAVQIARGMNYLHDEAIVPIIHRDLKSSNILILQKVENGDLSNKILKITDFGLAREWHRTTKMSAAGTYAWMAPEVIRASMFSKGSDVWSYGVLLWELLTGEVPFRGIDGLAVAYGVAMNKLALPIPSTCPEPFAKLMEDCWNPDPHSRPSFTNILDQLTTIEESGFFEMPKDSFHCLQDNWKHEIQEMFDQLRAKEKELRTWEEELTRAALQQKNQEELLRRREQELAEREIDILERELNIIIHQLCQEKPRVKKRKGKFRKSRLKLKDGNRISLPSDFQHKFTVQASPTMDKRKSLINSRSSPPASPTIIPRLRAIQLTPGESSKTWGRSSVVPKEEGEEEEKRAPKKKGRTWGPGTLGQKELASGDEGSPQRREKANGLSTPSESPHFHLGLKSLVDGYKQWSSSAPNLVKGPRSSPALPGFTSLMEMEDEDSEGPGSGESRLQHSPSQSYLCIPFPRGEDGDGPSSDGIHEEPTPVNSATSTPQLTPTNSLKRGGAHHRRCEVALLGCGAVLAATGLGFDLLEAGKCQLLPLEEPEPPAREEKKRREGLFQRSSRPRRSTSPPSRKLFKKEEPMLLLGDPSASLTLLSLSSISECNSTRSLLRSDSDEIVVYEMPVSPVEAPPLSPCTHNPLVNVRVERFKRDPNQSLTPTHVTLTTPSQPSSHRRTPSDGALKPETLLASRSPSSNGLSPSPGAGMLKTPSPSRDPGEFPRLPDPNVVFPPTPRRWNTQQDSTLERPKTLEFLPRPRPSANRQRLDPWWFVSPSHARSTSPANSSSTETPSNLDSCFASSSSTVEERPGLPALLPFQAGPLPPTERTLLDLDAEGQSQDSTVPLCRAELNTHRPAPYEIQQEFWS
Chain of LRRK2 wild-type (Q5S007 whole entry, looked up): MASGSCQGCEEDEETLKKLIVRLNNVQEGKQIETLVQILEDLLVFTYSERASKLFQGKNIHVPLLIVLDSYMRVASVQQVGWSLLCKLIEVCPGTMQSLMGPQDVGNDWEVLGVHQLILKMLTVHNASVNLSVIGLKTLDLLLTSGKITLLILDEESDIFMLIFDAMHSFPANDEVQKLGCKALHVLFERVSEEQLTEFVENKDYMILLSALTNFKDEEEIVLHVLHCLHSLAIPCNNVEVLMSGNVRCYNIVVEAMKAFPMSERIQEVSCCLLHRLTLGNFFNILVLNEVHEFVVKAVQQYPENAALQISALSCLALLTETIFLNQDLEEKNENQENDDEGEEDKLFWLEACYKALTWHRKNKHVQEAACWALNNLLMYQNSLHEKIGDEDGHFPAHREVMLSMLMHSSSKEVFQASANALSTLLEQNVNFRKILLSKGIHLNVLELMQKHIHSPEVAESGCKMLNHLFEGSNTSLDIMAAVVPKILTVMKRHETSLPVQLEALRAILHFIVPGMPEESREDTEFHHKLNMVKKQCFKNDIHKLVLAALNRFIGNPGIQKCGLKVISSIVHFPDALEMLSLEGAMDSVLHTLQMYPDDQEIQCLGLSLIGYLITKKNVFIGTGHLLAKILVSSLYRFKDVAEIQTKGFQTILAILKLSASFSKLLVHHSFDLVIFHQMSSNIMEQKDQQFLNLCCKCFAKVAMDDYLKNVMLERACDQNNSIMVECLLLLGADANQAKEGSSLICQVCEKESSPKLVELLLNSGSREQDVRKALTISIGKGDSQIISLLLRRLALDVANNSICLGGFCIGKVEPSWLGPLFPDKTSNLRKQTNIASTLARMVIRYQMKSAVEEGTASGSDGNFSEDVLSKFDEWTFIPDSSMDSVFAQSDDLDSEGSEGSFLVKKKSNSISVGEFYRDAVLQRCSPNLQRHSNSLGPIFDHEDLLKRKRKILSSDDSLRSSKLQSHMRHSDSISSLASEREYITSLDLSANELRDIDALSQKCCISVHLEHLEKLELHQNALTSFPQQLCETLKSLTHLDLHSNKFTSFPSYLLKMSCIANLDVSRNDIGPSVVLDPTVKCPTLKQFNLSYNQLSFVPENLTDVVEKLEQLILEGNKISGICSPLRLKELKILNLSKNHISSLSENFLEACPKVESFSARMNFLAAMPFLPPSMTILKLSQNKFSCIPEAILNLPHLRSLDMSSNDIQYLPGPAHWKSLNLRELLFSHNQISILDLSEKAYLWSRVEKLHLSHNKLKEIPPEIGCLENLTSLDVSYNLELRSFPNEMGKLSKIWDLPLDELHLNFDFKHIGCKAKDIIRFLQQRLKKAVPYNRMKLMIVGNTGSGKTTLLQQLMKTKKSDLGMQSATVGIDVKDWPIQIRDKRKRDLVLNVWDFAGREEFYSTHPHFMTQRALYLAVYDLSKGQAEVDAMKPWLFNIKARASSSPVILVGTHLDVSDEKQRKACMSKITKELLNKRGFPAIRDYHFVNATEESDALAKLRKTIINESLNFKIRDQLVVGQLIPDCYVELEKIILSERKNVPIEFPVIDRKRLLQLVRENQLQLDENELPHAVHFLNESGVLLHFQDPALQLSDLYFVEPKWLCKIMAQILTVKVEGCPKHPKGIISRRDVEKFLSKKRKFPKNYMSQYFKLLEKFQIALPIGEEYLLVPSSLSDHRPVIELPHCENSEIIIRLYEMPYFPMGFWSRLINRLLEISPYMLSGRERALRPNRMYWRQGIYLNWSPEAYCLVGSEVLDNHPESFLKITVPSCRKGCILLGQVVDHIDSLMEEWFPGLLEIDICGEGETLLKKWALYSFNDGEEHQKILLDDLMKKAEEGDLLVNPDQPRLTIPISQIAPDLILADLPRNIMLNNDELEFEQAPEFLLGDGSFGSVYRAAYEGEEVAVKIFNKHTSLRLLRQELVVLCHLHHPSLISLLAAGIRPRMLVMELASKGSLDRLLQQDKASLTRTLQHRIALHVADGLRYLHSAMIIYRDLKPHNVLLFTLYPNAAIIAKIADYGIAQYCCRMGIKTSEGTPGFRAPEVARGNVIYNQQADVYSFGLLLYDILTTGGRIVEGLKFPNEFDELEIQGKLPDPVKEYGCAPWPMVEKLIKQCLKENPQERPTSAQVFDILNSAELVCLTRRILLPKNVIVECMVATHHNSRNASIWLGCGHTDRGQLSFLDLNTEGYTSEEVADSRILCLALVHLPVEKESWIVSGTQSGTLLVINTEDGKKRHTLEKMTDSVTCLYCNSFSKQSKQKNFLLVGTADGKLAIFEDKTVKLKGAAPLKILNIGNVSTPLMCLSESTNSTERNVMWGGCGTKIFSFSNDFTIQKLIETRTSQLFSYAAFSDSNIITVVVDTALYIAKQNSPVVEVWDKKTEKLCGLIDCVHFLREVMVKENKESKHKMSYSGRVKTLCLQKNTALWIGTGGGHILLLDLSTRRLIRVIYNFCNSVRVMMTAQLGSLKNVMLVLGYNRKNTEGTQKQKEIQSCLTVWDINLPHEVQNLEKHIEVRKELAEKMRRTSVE
Chain of LRRK2 mutant (G2019S) (Q5S007 whole entry G2019S, looked up): as the sequence (Q5S007 whole entry, looked up) above, with G2019S counted along it
Chain of MLK3 (Q16584 whole entry, looked up): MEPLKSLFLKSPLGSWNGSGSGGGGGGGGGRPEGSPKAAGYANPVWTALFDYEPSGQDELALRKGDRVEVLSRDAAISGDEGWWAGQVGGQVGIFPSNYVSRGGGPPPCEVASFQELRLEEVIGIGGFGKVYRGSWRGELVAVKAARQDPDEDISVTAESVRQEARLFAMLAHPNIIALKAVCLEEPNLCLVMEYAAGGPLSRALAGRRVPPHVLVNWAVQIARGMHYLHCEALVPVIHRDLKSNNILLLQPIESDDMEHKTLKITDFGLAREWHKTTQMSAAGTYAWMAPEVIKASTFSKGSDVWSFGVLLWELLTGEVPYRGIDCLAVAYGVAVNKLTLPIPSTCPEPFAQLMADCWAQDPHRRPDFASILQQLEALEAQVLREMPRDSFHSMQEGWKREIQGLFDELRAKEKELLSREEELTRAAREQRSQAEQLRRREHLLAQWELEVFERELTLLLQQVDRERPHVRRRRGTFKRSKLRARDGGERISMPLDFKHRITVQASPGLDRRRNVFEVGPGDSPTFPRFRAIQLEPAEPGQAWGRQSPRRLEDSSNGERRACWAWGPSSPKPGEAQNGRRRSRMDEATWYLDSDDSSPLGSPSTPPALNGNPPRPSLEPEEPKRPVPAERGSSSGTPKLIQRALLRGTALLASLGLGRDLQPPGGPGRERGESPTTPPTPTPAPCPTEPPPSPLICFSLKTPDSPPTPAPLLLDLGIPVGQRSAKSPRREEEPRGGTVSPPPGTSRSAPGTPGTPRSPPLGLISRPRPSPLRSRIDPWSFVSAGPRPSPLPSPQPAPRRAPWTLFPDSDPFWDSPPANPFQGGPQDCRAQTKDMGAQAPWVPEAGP

Row | Structure (SMILES) | inhibition at 10 µM [1, 14] [%] | remaining binding at 0.1 µM [2] [%] | remaining binding at 0.5 µM [2] [%] | remaining binding at 0.1 µM [3] [%] | remaining binding at 0.5 µM [3] [%] | inhibition at 10 µM ([4]; U-937, 72 h) [%] | Relative degree of expression inhibition (%) α-SMA [5] [%] | Relative degree of expression inhibition (%) Fibronectin-1 [6] [%] | Relative degree of expression inhibition (%) TGF-β1 [7] [%] | IC50 [8] [nM] | inhibition at 10 µM ([9]; 72 h) [%] | IC50 [10] [nM] | IC50 [11] [nM] | inhibition at 10 µM ([12]; 72 h, read-out: Cancer cell proliferation inhibitory activity Hs746T) [%] | inhibition at 10 µM ([13]; A549, 72 h, read-out: Cancer cell proliferation inhibitory activity A549) [%] | inhibition at 10 µM [1, 15] [%] | inhibition at 10 µM [4, 16] [%] | inhibition at 10 µM ([9]; 10 μM, 72 hours, CCK-8) [%] | inhibition at 10 µM ([12]; 10 μM, 72 hours, CCK-8, read-out: Cancer cell proliferation inhibitory activity Hs746T) [%] | inhibition at 10 µM ([13]; A549, 10 μM, 72 hours, CCK-8, read-out: Cancer cell proliferation inhibitory activity A549) [%]
1 | CCS(=O)(=O)N1CC[C@H](Nc2c(Br)cnc3[nH]c(-c4cc(C)n(-c5cccc(S(=O)(=O)N6CCOCC6)c5)c4C)nc23)C1 [Example 11, (S)-6-bromo-2-(2,5-dimethyl-1-(3-(morpholinosulfonyl)phenyl)-1H-pyrrol-3-yl)-N-(1-(ethylsulfonyl)pyrrolidine-3-yl)-3H-imidazo[4,5-b]pyridine-7-amine] | > 50 | 7.9 | 1.7 | 28 | 6.9 | 10 to 50 | 24.73 | 86.85 | 99.40 | 7 | > 50 | – | – | – | – | – | – | – | – | –
2 | CCS(=O)(=O)N1CC[C@H](Nc2c(Br)cnc3nc(-c4cc(C)n(-c5cccc(S(=O)(=O)NC)c5)c4C)[nH]c23)C1 [Example 18, (S)-3-(3-(6-bromo-7-((1-(ethylsulfonyl)pyrrolidine-3-yl)amino)-1H-imidazo[4,5-b]pyridine-2-yl)-2,5-dimethyl-1H-pyrrol-1-yl)-N-methylbenzenesulfonamide] | – | – | – | – | – | – | – | – | – | 13 | > 50 | 75 | 109 | 10 to 50 | 10 to 50 | – | – | – | – | –
3 | CCS(=O)(=O)N1CC[C@H](Nc2c(Br)cnc3nc(-c4cc(C)n(-c5cccc(C(N)=O)c5)c4C)[nH]c23)C1 [Example 20, (S)-3-(3-(6-bromo-7-((1-(ethylsulfonyl)pyrrolidine-3-yl)amino)-1H-imidazo[4,5-b]pyridine-2-yl)-2,5-dimethyl-1H-pyrrol-1-yl)benzamide] | 10 to 50 | – | – | – | – | < 10 | – | – | – | 14 | 10 to 50 | 31 | 217 | – | – | – | – | – | – | –
4 | CCS(=O)(=O)N1CC[C@H](Nc2c(Br)cnc3nc(-c4cc(C)n(-c5cccc(OCCOC)c5)c4C)[nH]c23)C1 [Example 21, (S)-6-bromo-N-(1-(ethylsulfonyl)pyrrolidine-3-yl)-2-(1-(3-(2-methoxyethoxy)phenyl)-2,5-dimethyl-1H-pyrrol-3-yl)-1H-imidazo[4,5-b]pyridine-7-amine] | 10 to 50 | – | – | – | – | 10 to 50 | – | – | – | 15 | > 50 | 75 | 243 | – | – | – | – | – | – | –
5 | CCS(=O)(=O)N1CC[C@H](Nc2c(Br)cnc3nc(-c4cc(C)n(-c5ccc(S(N)(=O)=O)cc5)c4C)[nH]c23)C1 [Example 24, (S)-4-(3-(6-bromo-7-((1-(ethylsulfonyl)pyrrolidine-3-yl)amino)-1H-imidazo[4,5-b]pyridine-2-yl)-2,5-dimethyl-1H-pyrrol-1-yl)benzenesulfonamide] | 10 to 50 | – | – | – | – | 10 to 50 | – | – | – | 20 | 10 to 50 | 29 | 95 | – | – | – | – | – | – | –
6 | CCS(=O)(=O)N1CC[C@H](Nc2c(Br)cnc3[nH]c(-c4cc(C)n(-c5ccccc5)c4C)nc23)C1 [Example 25, (S)-6-bromo-2-(2,5-dimethyl-1-phenyl-1H-pyrrol-3-yl)-N-(1-(ethylsulfonyl)pyrrolidine-3-yl)-3H-imidazo[4,5-b]pyridine-7-amine] | – | 15 | 3.3 | 49 | 17 | – | – | – | – | 26 | – | 71 | 250 | – | – | > 50 | 10 to 50 | > 50 | – | –
7 | Cc1cc(-c2nc3c(Nc4cccc(S(N)(=O)=O)c4)c(Br)cnc3[nH]2)c(C)n1-c1ccc(C(=O)N2CCOCC2)cc1 [Example 27, 3-((6-bromo-2-(2,5-dimethyl-1-(4-(morpholine-4-carbonyl)phenyl)-1H-pyrrol-3-yl)-3H-imidazo[4,5-b]pyridine-7-yl)amino)benzenesulfonamide] | – | – | – | – | – | – | – | – | – | 20 | – | 176 | 178 | – | – | < 10 | < 10 | 10 to 50 | – | –
8 | Cc1cc(-c2nc3c(Nc4cccc(S(N)(=O)=O)c4)c(Br)cnc3[nH]2)c(C)n1-c1cc(S(N)(=O)=O)ccc1Cl [Example 36, 3-(3-(6-bromo-7-((3-sulfamoylphenyl)amino)-3H-imidazo[4,5-b]pyridine-2-yl)-2,5-dimethyl-1H-pyrrole-1-yl)-4-chlorobenzenesulfonamide] | – | – | – | – | – | – | 79.46 | 82.94 | 66.72 | 46 | – | – | – | – | – | < 10 | < 10 | < 10 | – | –
9 | CCS(=O)(=O)N1CC[C@H](Nc2ccnc3nc(-c4cc(C)n(-c5ccc(OCCN6CCOCC6)cc5)c4C)[nH]c23)C1 [Example 53, (S)-2-(2,5-dimethyl-1-(4-(2-morpholinoethoxy)phenyl)-1H-pyrrol-3-yl)-N-(1-(ethylsulfonyl)pyrrolidine-3-yl)-1H-imidazo[4,5-b]pyridine-7-amine] | – | – | – | – | – | – | 74.74 | 69.92 | 33.15 | 23200 | – | 10600 | – | – | – | – | – | – | – | –
10 | CCS(=O)(=O)N1CC[C@H](Nc2c(Br)cnc3[nH]c(-c4cc(C)n(-c5cccc(C(=O)O)c5)c4C)nc23)C1 [Example 58, (S)-3-(3-(6-bromo-7-((1-(ethylsulfonyl)pyrrolidine-3-yl)amino)-3H-imidazo[4,5-b]pyridine-2-yl)-2,5-dimethyl-1H-pyrrol-1-yl)benzoic acid] | – | 1.4 | 0.2 | 5 | 0.7 | – | 66.53 | 69.83 | 48.93 | 53 | – | – | – | – | – | < 10 | < 10 | < 10 | < 10 | < 10
11 | CCS(=O)(=O)N1CC[C@H](Nc2c(Br)cnc3nc(-c4cc(C)n(-c5cc(NC(=O)CN6CCN(C)CC6)ccc5C)c4C)[nH]c23)C1 [Example 76, N-(3-(3-(6-bromo-7-(((S)-1-(ethylsulfonyl)pyrrolidine-3-yl)amino)-1H-imidazo[4,5-b]pyridine-2-yl)-2,5-dimethyl-1H-pyrrol-1-yl)-4-methylphenyl)-2-(4-methylpiperazine-1-yl) acetamide] | – | 0.9 | 0.1 | 3.6 | 1.1 | – | 69.54 | 93.95 | 121.79 | 63 | – | – | – | – | – | – | – | – | – | –
